ChEMBL document CHEMBL6134918, “Novel Indole and Pyrrolopyridine Derivatives as GPR17 Modulators for Treating Multiple Sclerosis” (ACS Med Chem Lett, 2025)

Each compound was assayed against Uracil nucleotide/cysteinyl leukotriene receptor (Homo sapiens, UniProt Q13304) (assay: Inhibition of full length GPR17 (unknown origin) stably expressed in human 1321N1 cells incubated for 15 mins by cAMP based HTRF assay).
Assay type: functional, cell-based

Sequence of Uracil nucleotide/cysteinyl leukotriene receptor (Q13304 whole entry): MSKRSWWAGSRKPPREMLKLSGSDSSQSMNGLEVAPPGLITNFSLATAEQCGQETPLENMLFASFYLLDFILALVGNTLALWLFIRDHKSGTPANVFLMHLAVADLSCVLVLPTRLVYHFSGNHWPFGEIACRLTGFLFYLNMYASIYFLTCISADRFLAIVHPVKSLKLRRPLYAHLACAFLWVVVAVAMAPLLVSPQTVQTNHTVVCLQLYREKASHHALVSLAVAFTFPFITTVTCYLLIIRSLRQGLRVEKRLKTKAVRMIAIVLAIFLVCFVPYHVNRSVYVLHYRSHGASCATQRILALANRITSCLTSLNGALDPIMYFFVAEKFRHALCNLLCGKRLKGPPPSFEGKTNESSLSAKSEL

IC50, < 100 nM:
N#Cc1c(NS(=O)(=O)c2c[nH]c3cc(Cl)ccc23)cnn1CCCl
N#Cc1c(NS(=O)(=O)c2c[nH]c3cc(Cl)ccc23)cnn1CCC(F)(F)F
Cc1snc(NS(=O)(=O)c2c[nH]c3cc(Cl)ccc23)c1Cl
CCCn1ncc(NS(=O)(=O)c2c[nH]c3cc(Cl)ccc23)c1C#N
Cc1onc(NS(=O)(=O)c2c[nH]c3cc(Cl)c(Cl)cc23)c1Cl
O=S(=O)(Nc1ncc(C(F)(F)F)s1)c1c[nH]c2cc(Cl)ccc12
